Assay results from ChEMBL document CHEMBL5113480, “Discovery of novel biphenyl-substituted pyridone derivatives as potent non-nucleoside reverse transcriptase inhibitors with promising oral bioavailability” (Eur J Med Chem, 2022).

Assays:
[1] = system: Human immunodeficiency virus 1; test: Antiviral activity against HIV-1 IIIB infected in human MT4 cells assessed as reduction in viral replication by MTT assay; assay type: functional, organism-based; settings: Human immunodeficiency virus 1, IIIB
[2] = system: Human immunodeficiency virus 1; test: Antiviral activity against HIV-1 ROD infected in human MT4 cells assessed as reduction in viral replication by MTT assay; assay type: functional, organism-based
[3] = Cytotoxicity against human MT4 cells assessed as reduction on cell growth by MTT assay; assay type: toxicity, cell-based
[4] = Selectivity index, ratio of CC50 for cytotoxicity against human MT4 cells to EC50 of Anti-HIV activity against HIV-1 IIIB infected in human MT4 cells; assay type: toxicity, cell-based; settings: read-out: Ratio CC50/EC50
[5] = system: Human immunodeficiency virus 1; test: Antiviral activity against HIV-1 L100I mutant infected in human MT4 cells assessed as reduction in viral replication by MTT assay; assay type: functional, organism-based; settings: Human immunodeficiency virus 1, L100I mutant
[6] = system: Human immunodeficiency virus 1; test: Antiviral activity against HIV-1 K103N mutant infected in human MT4 cells assessed as reduction in viral replication by MTT assay; assay type: functional, organism-based; settings: Human immunodeficiency virus 1, K103N mutant
[7] = system: Human immunodeficiency virus 1; test: Antiviral activity against HIV-1 Y181C mutant infected in human MT4 cells assessed as reduction in viral replication by MTT assay; assay type: functional, organism-based; settings: Human immunodeficiency virus 1, Y181C mutant
[8] = system: Human immunodeficiency virus 1; test: Antiviral activity against HIV-1 Y188L mutant infected in human MT4 cells assessed as reduction in viral replication by MTT assay; assay type: functional, organism-based; settings: Human immunodeficiency virus 1, Y188L mutant
[9] = system: Human immunodeficiency virus 1; test: Antiviral activity against HIV-1 F227L-V106A mutant infected in human MT4 cells assessed as reduction in viral replication by MTT assay; assay type: functional, organism-based; settings: Human immunodeficiency virus 1, F227L-V106A mutant
[10] = system: Human immunodeficiency virus 1; test: Antiviral activity against HIV-1 K103N-Y181C mutant infected in human MT4 cells assessed as reduction in viral replication by MTT assay; assay type: functional, organism-based; settings: Human immunodeficiency virus 1, K103N-Y181C mutant
[11] = target: Human immunodeficiency virus type 1 reverse transcriptase (Human immunodeficiency virus 1, UniProt Q72547); test: Inhibition of wild type HIV-1 Reverse transcriptase

## Cc1cccc(-c2ccc(Oc3c(C(F)(F)F)ccn(Cc4n[nH]c(=O)n4C)c3=O)c(F)c2)c1
[1]
  EC50: > 35 µM
[2]
  EC50: > 35 µM
[3]
  CC50: 20.3 µM
[4]
  selectivity ratio: ≤ 1

## Cn1c(Cn2ccc(C(F)(F)F)c(Oc3ccc(-c4cccc(F)c4)cc3Cl)c2=O)n[nH]c1=O
[1]
  EC50: > 35 µM
[2]
  EC50: > 35 µM
[3]
  CC50: 20.1 µM
[4]
  selectivity ratio: < 1

## Cc1ccc(-c2ccc(Oc3c(C(F)(F)F)ccn(Cc4n[nH]c(=O)n4C)c3=O)c(F)c2)cc1
[1]
  EC50: > 35 µM
[2]
  EC50: > 35 µM
[3]
  CC50: 38 µM
[4]
  selectivity ratio: < 1

## Cn1c(Cn2ccc(C(F)(F)F)c(Oc3ccc(-c4ccc(F)cc4)cc3)c2=O)n[nH]c1=O
[1]
  EC50: > 35 µM
[2]
  EC50: > 35 µM
[3]
  CC50: 36.5 µM
[4]
  selectivity ratio: < 1

## Cc1cccc(-c2cc(F)c(Oc3c(C(F)(F)F)ccn(Cc4n[nH]c(=O)n4C)c3=O)c(F)c2)c1
[1]
  EC50: > 35 µM
[2]
  EC50: > 35 µM
[3]
  CC50: 20.9 µM
[4]
  selectivity ratio: < 1

## Cc1cccc(-c2ccc(Oc3c(C(F)(F)F)ccn(Cc4n[nH]c(=O)n4C)c3=O)cc2F)c1
[1]
  EC50: 4.58 µM
[2]
  EC50: > 35 µM
[3]
  CC50: 27.7 µM
[4]
  selectivity ratio: 6.05
[5]
  EC50: 4.83 µM
[6]
  EC50: > 35 µM
[7]
  EC50: > 35 µM
[8]
  EC50: > 35 µM
[9]
  EC50: 7.66 µM
[10]
  EC50: > 35 µM
[11]
  IC50: 17.9 µM

## Cc1cccc(-c2ccc(Oc3c(C(F)(F)F)ccn(Cc4n[nH]c(=O)n4C)c3=O)c(Cl)c2)c1
[1]
  EC50: > 35 µM
[2]
  EC50: > 35 µM
[3]
  CC50: 24.7 µM
[4]
  selectivity ratio: < 1

## Cn1c(Cn2ccc(C(F)(F)F)c(Oc3ccc(-c4ccc(F)cc4)cc3F)c2=O)n[nH]c1=O
[1]
  EC50: > 35 µM
[2]
  EC50: > 35 µM
[3]
  CC50: 24.1 µM
[4]
  selectivity ratio: < 1

## Cc1cccc(-c2ccc(Oc3c(C(F)(F)F)ccn(Cc4n[nH]c(=O)n4C)c3=O)cc2)c1
[1]
  EC50: > 35 µM
[2]
  EC50: > 35 µM
[3]
  CC50: 32.3 µM
[4]
  selectivity ratio: < 1

## Cc1ccc(-c2ccc(Oc3c(C(F)(F)F)ccn(Cc4n[nH]c(=O)n4C)c3=O)c(Cl)c2)cc1
[1]
  EC50: > 35 µM
[2]
  EC50: > 35 µM
[3]
  CC50: 50.9 µM
[4]
  selectivity ratio: < 1

## Cn1c(Cn2ccc(C(F)(F)F)c(Oc3c(F)cc(-c4ccc(F)cc4)cc3F)c2=O)n[nH]c1=O
[1]
  EC50: > 35 µM
[2]
  EC50: > 35 µM
[3]
  CC50: 18.2 µM
[4]
  selectivity ratio: ≤ 2

## Cn1c(Cn2ccc(C(F)(F)F)c(Oc3ccc(-c4cccc(F)c4)cc3F)c2=O)n[nH]c1=O
[1]
  EC50: > 35 µM
[2]
  EC50: > 35 µM
[3]
  CC50: 46.8 µM
[4]
  selectivity ratio: ≤ 1

## Cc1ccc(-c2ccc(Oc3c(C(F)(F)F)ccn(Cc4n[nH]c(=O)n4C)c3=O)cc2)cc1
[1]
  EC50: > 35 µM
[2]
  EC50: > 35 µM
[3]
  CC50: 25 µM
[4]
  selectivity ratio: < 1

## Cc1ccc(-c2ccc(Oc3c(C(F)(F)F)ccn(Cc4n[nH]c(=O)n4C)c3=O)cc2C)cc1
[1]
  EC50: > 35 µM
[2]
  EC50: > 35 µM
[3]
  CC50: 26.6 µM
[4]
  selectivity ratio: < 1

## Cc1cccc(-c2ccc(Oc3c(C(F)(F)F)ccn(Cc4n[nH]c(=O)n4C)c3=O)c(C)c2)c1
[1]
  EC50: > 35 µM
[2]
  EC50: > 35 µM
[3]
  CC50: 19.1 µM
[4]
  selectivity ratio: ≤ 2

## Cn1c(Cn2ccc(C(F)(F)F)c(Oc3ccc(-c4ccc(F)c(C#N)c4)cc3)c2=O)n[nH]c1=O
[1]
  EC50: 7.28 µM
[2]
  EC50: > 35 µM
[3]
  CC50: 49.1 µM
[4]
  selectivity ratio: 6.75

## Cn1c(Cn2ccc(C(F)(F)F)c(Oc3ccc(-c4cccc(F)c4)cc3)c2=O)n[nH]c1=O
[1]
  EC50: > 35 µM
[2]
  EC50: > 35 µM
[3]
  CC50: 48.3 µM
[4]
  selectivity ratio: < 1
